Earlier results, collected in patent US20210187081A1, “FORMULATIONS AND DOSES OF PEGYLATED URICASE” (Selecta Biosciences, Inc., priority 2019, published 2021).
Like-named read-outs stand apart in the source and are kept apart here.

Key:
[1] = tested on: Patients with Hyperuricemia and Gout; conditions: for Subjects who required treatment for at least one gout flare: first 8 weeks, with gout flare prophylaxis
[2] = tested on: patients with gout with an inadequate response to allopurinol; conditions: for Patients with gout flares requiring treatment in a month: colchicine prophylaxis

SMILES: Cc1nc(-c2ccc(OCC(C)C)c(C#N)c2)sc1C(=O)O [Febuxostat, febuxostat]
- Flares per patient month (flare frequency) ([1]; 80 mg/day): 0.22 flares per patient month
- Subjects who required treatment for at least one gout flare ([1]; 80 mg/day): 55 out of 255
- Flares per patient month (flare frequency) ([1]; 80 mg/day, listed as febuxostat): at least 0.22 flares per patient month
- Flares per patient month (flare frequency) ([1]; 120 mg/day): 0.36 flares per patient month
- Subjects who required treatment for at least one gout flare ([1]; 120 mg/day): 90 out of 250
- Flares per patient month (flare frequency) ([1]; 120 mg/day, listed as febuxostat): ≥ 0.36 flares per patient month

SMILES: O=C(O)CSc1nnc(Br)n1-c1ccc(C2CC2)c2ccccc12 [Lesinurad, lesinurad]
- Patients with gout flares requiring treatment in a month ([2]; 200 mg daily): 10 out of 46
- Flares per patient month (flare frequency) ([2]; 200 mg/day): 0.22 flares per patient month
- Time of efficacy (area under curve of mean sUA levels over time) ([2]; 200 mg/day): 158.5
- Patients with gout flares requiring treatment in a month ([2]; 400 mg daily): 13 out of 42
- Flares per patient month (flare frequency) ([2]; 400 mg/day): 0.31 flares per patient month
- Time of efficacy (area under curve of mean sUA levels over time) ([2]; 400 mg/day): 165.8
- Patients with gout flares requiring treatment in a month ([2]; 600 mg daily): 15 out of 48
- Flares per patient month (flare frequency) ([2]; 600 mg/day): 0.31 flares per patient month
- Time of efficacy (area under curve of mean sUA levels over time) ([2]; 600 mg/day): 167.5
